Experimental findings from patent publication US12692261B2, “Substituted heterocyclic compounds and therapeutic uses thereof” (Bayer Aktiengesellschaft, priority 2020, dated 2026) are described below.

Structures are written as SMILES. Like-named read-outs stand apart in the source and are kept apart here.

Assay [1] deals with T1, full-length human CSNK1A1 (Homo sapiens, UniProt P48729).
T1 construct: N-terminal Glutathion-S-Transferase (GST) and full-length human CSNK1A1; purchased Life Technologies PV4174; host or cells: baculovirus infected insect cells
T1 sequence (P48729 whole entry): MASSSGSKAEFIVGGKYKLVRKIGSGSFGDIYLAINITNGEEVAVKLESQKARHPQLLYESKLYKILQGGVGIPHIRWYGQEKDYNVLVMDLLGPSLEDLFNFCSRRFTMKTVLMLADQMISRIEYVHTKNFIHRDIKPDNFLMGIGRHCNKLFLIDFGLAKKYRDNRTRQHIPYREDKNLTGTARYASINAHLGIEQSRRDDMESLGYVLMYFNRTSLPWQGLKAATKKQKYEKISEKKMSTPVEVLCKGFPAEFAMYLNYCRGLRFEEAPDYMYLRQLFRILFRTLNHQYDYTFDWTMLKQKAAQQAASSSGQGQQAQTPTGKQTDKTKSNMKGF
Briefly: CSNK1A1 Assay 2 (ADP-Glo, 1 μM ATP, substrate biotin-Ahx-KRRRAL-pS-VASLPGL). The assay is classed as biochemical. The settings on record: Table 3, read-out: CSNK1A1 Assay 2 IC50 [mol/l] (median). An outline of the steps:
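Activity read as ADP generated (ADP-Glo luciferase luminescence, 1 h detection steps at 22 °C). Enzyme was insect-cell-expressed GST–full-length human CSNK1A1, compound-preincubated 15 min before reaction with phosphopeptide substrate and 1 μM ATP in 50 mM HEPES pH 7.5, 10 mM MgCl2.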
Background: ADP-Glo first removes unused ATP, then detects ADP through luciferase.

In assay [2] the target is T2, wild-type Epidermal Growth Factor Receptor (EGFR) (Homo sapiens, UniProt P00533).
T2 construct: a fragment of human EGFR (amino acids R669 to A1210); made in house; host or cells: Sf9 insect cells
T2 sequence (P00533 669-1210): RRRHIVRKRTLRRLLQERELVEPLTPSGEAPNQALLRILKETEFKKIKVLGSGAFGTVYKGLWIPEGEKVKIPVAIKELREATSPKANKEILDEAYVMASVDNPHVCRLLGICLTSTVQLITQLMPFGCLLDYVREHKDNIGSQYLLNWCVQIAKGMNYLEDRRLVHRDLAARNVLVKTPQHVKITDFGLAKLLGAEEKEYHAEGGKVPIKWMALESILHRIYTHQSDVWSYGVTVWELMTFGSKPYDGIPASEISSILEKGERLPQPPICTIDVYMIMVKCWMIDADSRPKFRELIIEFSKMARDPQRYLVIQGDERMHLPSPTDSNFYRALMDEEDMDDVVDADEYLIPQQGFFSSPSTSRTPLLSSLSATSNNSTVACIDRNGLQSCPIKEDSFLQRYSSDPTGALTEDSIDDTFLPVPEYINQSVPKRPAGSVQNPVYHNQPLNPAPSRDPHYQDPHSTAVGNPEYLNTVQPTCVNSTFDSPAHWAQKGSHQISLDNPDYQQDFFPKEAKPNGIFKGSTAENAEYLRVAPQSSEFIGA
Briefly: WT-EGFR Kinase Assay (TR-FRET, 2 mM ATP). The class given is biochemical. The gist of the method: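 GST-fused human EGFR fragment (R669-A1210) from Sf9 cells, typically 7.6 pg/μL, pre-incubated with compound 15 min at 22° C in Hepes pH 7.0 buffer with MgCl2, DTT and vanadate; biotinylated peptide substrate. After EDTA stop, phosphopeptide detected by TR-FRET (anti-phosphotyrosine Tb-cryptate/streptavidin-XL665), 665/620 nm emission ratio.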
On the technique in general: In TR-FRET formats the signal depends on donor and acceptor labels being close together.

Where [3] appears, read: read-out: EGFR Wildtyp 2 mM ATP IC50 [mol/l] (median), Table 4.

On to `O=C(Nc1cc(-c2[nH]c3cc(F)cnc3c2-c2ccccn2)ccn1)C(CC(F)F)c1ccc(F)cc1` (single isomer, unassigned; (-)) [Example 18, (−)-4,4-difluoro-2-(4-fluorophenyl)-N-{4-[6-fluoro-3-(pyridin-2-yl)-1H-pyrrolo[3,2-b]pyridin-2-yl]pyridin-2-yl}butanamide], for which the IC50 in assay [1] is 16.2 nM; in assay [2] (setting [3]), greater than 20000 nM.
Turning to `Cc1ccc2[nH]c(-c3ccnc(NC(=O)C(CC(F)F)c4ccc(F)cc4)c3)c(-c3ccccn3)c2n1` (single isomer, unassigned) [Example 6, 4,4-difluoro-2-(4-fluorophenyl)-N-{4-[5-methyl-3-(pyridin-2-yl)-1H-pyrrolo[3,2-b]pyridin-2-yl]pyridin-2-yl}butanamide], the IC50 in assay [1] is 68.2 nM; in assay [2] (setting [3]), greater than 20000 nM.
In the case of `CC(C)(O)c1cc(F)nc2c(-c3ccccn3)c(-c3ccnc(NC(=O)C(CC(F)F)c4ccc(F)cc4)c3)[nH]c12` (racemic) [Example 98, (2RS)-4,4-difluoro-N-{4-[5-fluoro-7-(2-hydroxypropan-2-yl)-3-(pyridin-2-yl)-1H-pyrrolo[3,2-b]pyridin-2-yl]pyridin-2-yl}-2-(4-fluorophenyl)butanamide], the IC50 in assay [1] was 7.36 nM; in assay [2] (EGFR Wildtyp 2 mM ATP IC50 [mol/l] (median), Table 4), greater than 20000 nM.
